Assay results taken from patent US8975398B2, “NAMPT inhibitors” (AbbVie Inc., priority 2012, dated 2015).

Legend:
NAMPT = NAMPT (Homo sapiens, UniProt P43490); experiment: Time-Resolved Fluorescence Resonance Energy Transfer (TR-FRET) Binding Assay of NAMPT with PRPP; conditions: 2 nM NAMPT, 2 nM probe, 200 uM PRPP and 2.5 mM ATP, equilibrated 16 hours
In short: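 Binding measured by TR-FRET after a 16-hour equilibration meant to permit enzymatic compound modification. Substrates present at 200 uM PRPP and 2.5 mM ATP, with 2 nM enzyme, 2 nM probe, 1 nM Tb-anti-His antibody and 2% DMSO final.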

[1] = molecular target: NAMPT (human, recombinant, C-terminally His-tagged) (Homo sapiens, UniProt P43490); experiment: Time-Resolved Fluorescence Resonance Energy Transfer (TR-FRET) Binding Assay of NAMPT; conditions: 6.8 nM NAMPT, 200 nM probe, equilibrated 3 hours, absence of substrates
In short: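 Probe displacement measured by TR-FRET (Ex 337 nm; 520/495 nm ratio) after 3 h room-temperature equilibration of compound with 6.8 nM His-tagged human NAMPT, 1 nM Tb-anti-His antibody and 200 nM Oregon Green 488 nicotinamide-site probe, pH 7.5 HEPES buffer, 2% DMSO. Control-normalized data fit four-parameter logistic for IC50.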

Sequence of NAMPT (P43490 whole entry): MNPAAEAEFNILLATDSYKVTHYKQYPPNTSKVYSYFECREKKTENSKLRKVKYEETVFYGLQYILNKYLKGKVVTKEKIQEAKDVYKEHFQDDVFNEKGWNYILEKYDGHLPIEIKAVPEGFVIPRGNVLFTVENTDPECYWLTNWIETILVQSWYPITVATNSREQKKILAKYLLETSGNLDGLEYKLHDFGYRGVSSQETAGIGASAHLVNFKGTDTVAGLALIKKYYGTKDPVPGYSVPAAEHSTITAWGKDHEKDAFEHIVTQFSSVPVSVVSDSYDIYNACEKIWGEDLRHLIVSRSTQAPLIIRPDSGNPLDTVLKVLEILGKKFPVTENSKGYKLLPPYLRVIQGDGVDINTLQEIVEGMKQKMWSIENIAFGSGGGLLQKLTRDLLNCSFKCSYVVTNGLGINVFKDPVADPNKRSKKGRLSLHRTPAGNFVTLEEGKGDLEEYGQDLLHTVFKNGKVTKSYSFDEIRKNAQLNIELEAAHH
Sequence of NAMPT (human, recombinant, C-terminally His-tagged) (P43490 whole entry): as above

SMILES	IC50 (NAMPT) [µM]	IC50 [1] [µM]
Cc1ncccc1N1CC(C(=O)Nc2ccc(C3CCN(C(=O)CC(F)(F)F)CC3)cc2)C1 [Example 182, 1-(2-methylpyridin-3-yl)-N-{4-[1-(3,3,3-trifluoropropanoyl)piperidin-4-yl]phenyl}azetidine-3-carboxamide]	0.104	0.14
O=C(Nc1ccc(OC2CCN(C(=O)CC3CCOCC3)CC2)cc1)[C@H]1CCN(c2cccnc2)C1 [Example 11, (3S)-1-(pyridin-3-yl)-N-(4-{[1-(tetrahydro-2H-pyran-4-ylacetyl)piperidin-4-yl]oxy}phenyl)pyrrolidine-3-carboxamide]	0.00193	2.37
CCCC(=O)N1CCC(c2ccc(NC(=O)C3CN(c4cccnc4C)C3)cc2)CC1 [Example 194, N-[4-(1-butanoylpiperidin-4-yl)phenyl]-1-(2-methylpyridin-3-yl)azetidine-3-carboxamide]	0.0626	0.122
O=C(Nc1ccc(OC2CCN(C(=O)C3CCOC3)CC2)cc1)[C@H]1CCN(c2cccnc2)C1 (stereo partly drawn) [Example 15, (3S)-1-(pyridin-3-yl)-N-(4-{[1-(tetrahydrofuran-3-ylcarbonyl)piperidin-4-yl]oxy}phenyl)pyrrolidine-3-carboxamide]	0.00249	1.66
O=C(Nc1ccc(OC2CCN(C(=O)Cc3ccc(F)cc3F)CC2)cc1)C1CN(c2cccnn2)C1 [Example 236, N-[4-({1-[(2,4-difluorophenyl)acetyl]piperidin-4-yl}oxy)phenyl]-1-(pyridazin-3-yl)azetidine-3-carboxamide]	0.00111	0.13
CCCCC(=O)N1CCC(c2ccc(NC(=O)C3CN(c4cccnc4C)C3)cc2)CC1 [Example 159, 1-(2-methylpyridin-3-yl)-N-[4-(1-pentanoylpiperidin-4-yl)phenyl]azetidine-3-carboxamide]	0.0612	0.137
CC[C@H](C)C(=O)N1CCC(Oc2ccc(NC(=O)[C@H]3CCN(c4cccnc4)C3)cc2)CC1 [Example 19, (3S)-N-[4-({1-[(2S)-2-methylbutanoyl]piperidin-4-yl}oxy)phenyl]-1-(pyridin-3-yl)pyrrolidine-3-carboxamide]	0.000554	1.17
CC(=O)N1CCC(c2ccc(NC(=O)C3CN(c4cccnc4)C3)cc2)CC1 [Example 118, N-[4-(1-acetylpiperidin-4-yl)phenyl]-1-(pyridin-3-yl)azetidine-3-carboxamide]	0.000169	0.0141
O=C(Nc1ccc(OC2CCN(C(=O)C3CCCO3)CC2)cc1)C1CN(c2cccnn2)C1 (centres unmarked) [Example 221, 1-(pyridazin-3-yl)-N-(4-{[1-(tetrahydrofuran-2-ylcarbonyl)piperidin-4-yl]oxy}phenyl)azetidine-3-carboxamide]	0.000576	0.164
CC(C)(C)CC(=O)N1CCC(c2ccc(NC(=O)C3CN(c4cccnn4)C3)cc2)CC1 [Example 327, N-{4-[1-(3,3-dimethylbutanoyl)piperidin-4-yl]phenyl}-1-(pyridazin-3-yl)azetidine-3-carboxamide]	0.000655	0.0126
CC(C)C(=O)N1CCC(c2ccc(NC(=O)C3CN(c4cccnc4)C3)cc2)CC1 [Example 30, N-{4-[1-(2-methylpropanoyl)piperidin-4-yl]phenyl}-1-(pyridin-3-yl)azetidine-3-carboxamide]	0.000267	0.015
CCC(C)C(=O)N1CCC(c2ccc(NC(=O)C3CN(c4cccnn4)C3)cc2)CC1 (centres unmarked) [Example 319, N-{4-[1-(2-methylbutanoyl)piperidin-4-yl]phenyl}-1-(pyridazin-3-yl)azetidine-3-carboxamide]	0.000747	0.0249
CC(C)C(=O)N1CCC(Oc2ccc(NC(=O)C3CN(c4cccnc4)C3)cc2)CC1 [Example 46, N-(4-{[1-(2-methylpropanoyl)piperidin-4-yl]oxy}phenyl)-1-(pyridin-3-yl)azetidine-3-carboxamide]	0.00102	0.0934
CCOCCC(=O)N1CCC(Oc2ccc(NC(=O)C3CN(c4cccnc4)C3)cc2)CC1 [Example 39, N-(4-{[1-(3-ethoxypropanoyl)piperidin-4-yl]oxy}phenyl)-1-(pyridin-3-yl)azetidine-3-carboxamide]	0.00105	0.104
Cc1ncccc1N1CC(C(=O)Nc2ccc(C3CCN(C(=O)CN4CCCC4)CC3)cc2)C1 [Example 166, 1-(2-methylpyridin-3-yl)-N-{4-[1-(pyrrolidin-1-ylacetyl)piperidin-4-yl]phenyl}azetidine-3-carboxamide]	0.206	2.27
O=C(Nc1ccc(C2CCN(C(=O)CC3C[C@@H]4CC[C@H]3C4)CC2)cc1)C1CN(c2cccnc2)C1 (stereo partly drawn) [Example 100, N-(4-{1-[(1S,4R)-bicyclo[2.2.1]hept-2-ylacetyl]piperidin-4-yl}phenyl)-1-(pyridin-3-yl)azetidine-3-carboxamide]	0.000497	0.0306

SMILES	IC50 (NAMPT) [µM]	IC50 [1] [µM]
COCCOCC(=O)N1CCC(Oc2ccc(NC(=O)C3CN(c4cccnc4)C3)cc2)CC1 [Example 48, N-[4-({1-[(2-methoxyethoxy)acetyl]piperidin-4-yl}oxy)phenyl]-1-(pyridin-3-yl)azetidine-3-carboxamide]	0.000861	0.112
O=C(Nc1ccc(C2CCN(C(=O)CCN3CCOCC3)CC2)cc1)C1CN(c2cccnc2)C1 [Example 124, N-(4-{1-[3-(morpholin-4-yl)propanoyl]piperidin-4-yl}phenyl)-1-(pyridin-3-yl)azetidine-3-carboxamide]	0.000278	0.123
O=C(Nc1ccc(OC2CCN(C(=O)Cc3ccc(F)cc3)CC2)cc1)C1CN(c2cccnn2)C1 [Example 232, N-[4-({1-[(4-fluorophenyl)acetyl]piperidin-4-yl}oxy)phenyl]-1-(pyridazin-3-yl)azetidine-3-carboxamide]	0.000563	0.141
Cc1ncccc1N1CC(C(=O)Nc2ccc(C3CCN(C(=O)C(C)(C)C)CC3)cc2)C1 [Example 185, N-{4-[1-(2,2-dimethylpropanoyl)piperidin-4-yl]phenyl}-1-(2-methylpyridin-3-yl)azetidine-3-carboxamide]	0.0441	0.0813
CC1(C(=O)N2CCC(Oc3ccc(NC(=O)C4CN(c5cccnc5)C4)cc3)CC2)CCCCC1 [Example 53, N-[4-({1-[(1-methylcyclohexyl)carbonyl]piperidin-4-yl}oxy)phenyl]-1-(pyridin-3-yl)azetidine-3-carboxamide]	0.000689	0.0256
CC1(C(=O)N2CCC(c3ccc(NC(=O)C4CN(c5cccnc5)C4)cc3)CC2)CC1 [Example 110, N-(4-{1-[(1-methylcyclopropyl)carbonyl]piperidin-4-yl}phenyl)-1-(pyridin-3-yl)azetidine-3-carboxamide]	0.000169	0.00663
COCCOCC(=O)N1CCC(c2ccc(NC(=O)C3CN(c4cccnc4)C3)cc2)CC1 [Example 123, N-(4-{1-[(2-methoxyethoxy)acetyl]piperidin-4-yl}phenyl)-1-(pyridin-3-yl)azetidine-3-carboxamide]	0.000282	0.0656
O=C(Nc1ccc(OC2CCN(C(=O)c3cccc(C(F)(F)F)c3)CC2)cc1)C1CN(c2ccnnc2)C1 [Example 285, 1-(pyridazin-4-yl)-N-[4-({1-[3-(trifluoromethyl)benzoyl]piperidin-4-yl}oxy)phenyl]azetidine-3-carboxamide]	0.0862	0.149
O=C(Nc1ccc(OC2CCN(C(=O)c3ccccn3)CC2)cc1)C1CN(c2ccnnc2)C1 [Example 296, 1-(pyridazin-4-yl)-N-(4-{[1-(pyridin-2-ylcarbonyl)piperidin-4-yl]oxy}phenyl)azetidine-3-carboxamide]	0.0571	0.149
O=C(Nc1ccc(OC2CCN(C(=O)c3ccsc3)CC2)cc1)C1CN(c2ccnnc2)C1 [Example 278, 1-(pyridazin-4-yl)-N-(4-{[1-(thiophen-3-ylcarbonyl)piperidin-4-yl]oxy}phenyl)azetidine-3-carboxamide]	0.0334	0.0758
CC(C)CCN1CCC(c2ccc(NC(=O)C3CN(c4cccnc4)C3)cc2)CC1 [Example 93, N-{4-[1-(3-methylbutyl)piperidin-4-yl]phenyl}-1-(pyridin-3-yl)azetidine-3-carboxamide]	0.00125	1.22
O=C(Nc1ccc(OC2CCN(C(=O)c3cccc(OC(F)(F)F)c3)CC2)cc1)C1CN(c2cccnn2)C1 [Example 224, 1-(pyridazin-3-yl)-N-[4-({1-[3-(trifluoromethoxy)benzoyl]piperidin-4-yl}oxy)phenyl]azetidine-3-carboxamide]	0.00139	0.151
CC(C)CCC(=O)N1CCC(c2ccc(NC(=O)C3CN(c4cccnc4)C3)cc2)CC1 [Example 116, N-{4-[1-(4-methylpentanoyl)piperidin-4-yl]phenyl}-1-(pyridin-3-yl)azetidine-3-carboxamide]	0.000204	0.0265
Cc1ncccc1N1CC(C(=O)Nc2ccc(C3CCN(C(=O)c4ccccc4)CC3)cc2)C1 [Example 149, N-[4-(1-benzoylpiperidin-4-yl)phenyl]-1-(2-methylpyridin-3-yl)azetidine-3-carboxamide]	0.0543	0.0207
O=C(Nc1ccc(C2CCN(C(=O)c3ccccc3Cl)CC2)cc1)C1CN(c2cccnn2)C1 [Example 350, N-{4-[1-(2-chlorobenzoyl)piperidin-4-yl]phenyl}-1-(pyridazin-3-yl)azetidine-3-carboxamide]	0.000642	0.00462
